What was measured:
integrin α4β1 = target: T1, integrin α4β1 (Homo sapiens, UniProt P05556+P13612); assay: VCAM antagonist activity (VCAM-1/α4β1 binding assay); assay type: cell-based; details: Jurkat cells binding to VCAM-1; read-out: VCAM antagonistic activity (IC50) α4β1
T1 construct: cell strain Jurkat (ATCC TIB-152) of human T cells, known to express integrin α4β1; host or cells: Jurkat (human T cell line)
Method: (Test Example) VCAM Antagonist Activity (VCAM-1/α4β1 Binding Assay):
The capacity of a test substance antagonistic to the binding of cell strain Jurkat (ATCC TIB-152) of human T cells, known to express integrin α4β1, to VCAM-1 was determined.
(§1) 100 μl/well of a solution (500 ng/ml) of recombinant human VCAM-1 (R & D systems) solution diluted with buffer A (0.1 M NaHCO3, pH 9.6) was added to a micro titer plate having 96 wells (Nunc Maxisorp). After the incubation at 4° C. overnight, unbound VCAM-1 was removed by washing once with PBS. After completion of the washing, a buffer (buffer B) obtained by diluting Block Ace® (Dainippon Pharmaceutical Co., Ltd.) with PBS to 1/4 concentration was added in an amount of 150 μl/well. After the incubation at room temperature for 1 hour, buffer B was removed and the plate was washed with PBS once.
Jurkat cells were washed with Dulbecco modified Eagle medium (SIGMA, hereinafter referred to as “DMEM”) twice and then incubated in DMEM containing 10 μg/ml of Calcein-AM (Wako Pure Chemical Industries, Ltd.) at 37° C. in dark place for 30 minutes to label with fluorescence. The cells were again suspended in a binding buffer (20 mM HEPES, DMEM containing 0.1% BSA).
(§2) 50 μl of a test substance of various concentrations obtained by the dilution with the binding buffer was added to the plate. Immediately thereafter, 50 μl (final volume: 100 μl/well) of the fluorescent Jurkat cells (4×10^6 cells/ml) were added thereto, and they were incubated at room temperature for 30 minutes. After the shaking on a plate shaker (IKA MTS-4) at 800 rpm for 30 seconds, the solution was immediately removed to remove the unbound cells. The fluorescence quantity of the bound cells remaining in the wells was determined with a fluorescent plate reader (Wallac 1420 ARVO multi-label counter) (filter excitation wave length: 485 nm, emission wave length: 535 nm). The fluorescent strength thus obtained is proportional to the number of Jurkat cells bound to VCAM-1 and remaining on the plate. The binding rate of each test material in various concentrations was determined while the fluorescent strength of the test material-free well was determined to be 100%. The concentration IC50 for the 50% binding inhibition was calculated.
(§3) The activities were classified into group A wherein IC50 was 0.02 μmol/l or below, group B wherein IC50 was higher than 0.02 μmol/l and not above 0.1 μmol/l, group C wherein IC50 was higher than 0.1 μmol/l and not above 2 μmol/l, and group D wherein IC50 was higher than 2 μmol/l and not above 10 μmol/l.

integrin α4β7 = target: T2, integrin α4β7 (Homo sapiens, UniProt P13612+P26010); assay: VCAM antagonistic activity (VCAM-1/α4β7 binding assay); assay type: cell-based; details: RPMI-8866 cells binding to VCAM-1; read-out: VCAM antagonistic activity (IC50) α4β7
T2 construct: lymphoma cell strain RPMI-8866 of human B cells, known to express integrin α4β7; endogenous in cells; host or cells: RPMI-8866 (human B lymphoma cell line)
T2 sequence (P13612 34-1032): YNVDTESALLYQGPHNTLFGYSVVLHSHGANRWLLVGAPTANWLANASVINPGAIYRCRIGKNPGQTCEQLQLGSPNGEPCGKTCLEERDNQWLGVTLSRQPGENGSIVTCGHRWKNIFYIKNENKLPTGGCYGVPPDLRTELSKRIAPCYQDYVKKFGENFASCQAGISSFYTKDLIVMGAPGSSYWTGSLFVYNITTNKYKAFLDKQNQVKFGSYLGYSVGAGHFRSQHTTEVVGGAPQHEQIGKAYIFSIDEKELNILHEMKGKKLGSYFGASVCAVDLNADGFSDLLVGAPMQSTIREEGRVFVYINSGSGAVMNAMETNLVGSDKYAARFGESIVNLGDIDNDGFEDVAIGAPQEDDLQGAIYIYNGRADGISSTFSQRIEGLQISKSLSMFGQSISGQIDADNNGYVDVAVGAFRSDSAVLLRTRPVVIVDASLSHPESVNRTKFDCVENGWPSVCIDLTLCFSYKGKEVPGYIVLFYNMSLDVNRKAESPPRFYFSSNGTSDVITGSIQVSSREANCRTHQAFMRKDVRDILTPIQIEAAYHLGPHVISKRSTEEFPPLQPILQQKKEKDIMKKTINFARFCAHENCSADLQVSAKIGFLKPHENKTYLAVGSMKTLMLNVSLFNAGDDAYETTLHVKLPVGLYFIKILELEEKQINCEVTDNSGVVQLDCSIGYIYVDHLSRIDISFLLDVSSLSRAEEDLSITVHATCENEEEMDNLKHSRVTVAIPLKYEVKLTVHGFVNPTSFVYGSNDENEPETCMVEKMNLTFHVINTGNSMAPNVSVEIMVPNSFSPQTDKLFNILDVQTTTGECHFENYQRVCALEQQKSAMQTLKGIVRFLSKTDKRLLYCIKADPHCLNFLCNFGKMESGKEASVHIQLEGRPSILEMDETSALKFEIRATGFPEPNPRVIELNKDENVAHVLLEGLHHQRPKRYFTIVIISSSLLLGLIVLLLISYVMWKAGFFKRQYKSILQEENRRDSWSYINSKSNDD
T2 sequence (P26010 20-798): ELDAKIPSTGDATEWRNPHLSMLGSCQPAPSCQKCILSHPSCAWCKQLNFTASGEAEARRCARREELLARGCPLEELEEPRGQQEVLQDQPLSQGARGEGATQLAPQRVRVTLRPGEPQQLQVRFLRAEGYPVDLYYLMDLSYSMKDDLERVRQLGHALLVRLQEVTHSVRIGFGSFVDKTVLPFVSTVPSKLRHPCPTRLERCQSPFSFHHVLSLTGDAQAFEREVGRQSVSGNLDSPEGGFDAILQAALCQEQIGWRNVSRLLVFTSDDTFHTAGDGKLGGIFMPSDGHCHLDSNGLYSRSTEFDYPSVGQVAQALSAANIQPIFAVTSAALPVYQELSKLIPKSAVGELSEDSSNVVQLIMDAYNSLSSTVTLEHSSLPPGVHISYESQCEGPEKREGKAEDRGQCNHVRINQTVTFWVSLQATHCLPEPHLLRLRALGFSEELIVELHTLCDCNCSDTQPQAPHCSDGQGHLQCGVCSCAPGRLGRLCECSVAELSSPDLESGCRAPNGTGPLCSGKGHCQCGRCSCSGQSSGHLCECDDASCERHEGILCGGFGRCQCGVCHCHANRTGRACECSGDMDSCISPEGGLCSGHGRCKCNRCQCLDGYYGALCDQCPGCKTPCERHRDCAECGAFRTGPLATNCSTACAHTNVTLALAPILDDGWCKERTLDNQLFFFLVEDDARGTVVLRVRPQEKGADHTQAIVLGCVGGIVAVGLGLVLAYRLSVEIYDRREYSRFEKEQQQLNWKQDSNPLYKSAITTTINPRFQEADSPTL
Method: (Test Example) VCAM Antagonistic Activity (VCAM-1/α4β7 Binding Assay):
The capacity of a test substance antagonistic to the binding of lymphoma cell strain RPMI-8866 of human B cells, known to express integrin α4β7, to VCAM-1 was determined.
as §1
RPMI-8866 cells were incubated in Dulbecco modified Eagle medium containing 10 μg/ml of Calcein-AM (Wako Pure Chemical Industries, Ltd.) (SIGMA, hereinafter referred to as “DMEM”) at 37° C. for 30 minutes to label with fluorescence. The cells were again suspended in a binding buffer (20 mM HEPES, DMEM containing 0.1% BSA) containing 4 mM of MnCl2.
as §2, with “RPMI-8866” for “Jurkat”
as §3

T1 sequence (P05556 21-798, one chain of several): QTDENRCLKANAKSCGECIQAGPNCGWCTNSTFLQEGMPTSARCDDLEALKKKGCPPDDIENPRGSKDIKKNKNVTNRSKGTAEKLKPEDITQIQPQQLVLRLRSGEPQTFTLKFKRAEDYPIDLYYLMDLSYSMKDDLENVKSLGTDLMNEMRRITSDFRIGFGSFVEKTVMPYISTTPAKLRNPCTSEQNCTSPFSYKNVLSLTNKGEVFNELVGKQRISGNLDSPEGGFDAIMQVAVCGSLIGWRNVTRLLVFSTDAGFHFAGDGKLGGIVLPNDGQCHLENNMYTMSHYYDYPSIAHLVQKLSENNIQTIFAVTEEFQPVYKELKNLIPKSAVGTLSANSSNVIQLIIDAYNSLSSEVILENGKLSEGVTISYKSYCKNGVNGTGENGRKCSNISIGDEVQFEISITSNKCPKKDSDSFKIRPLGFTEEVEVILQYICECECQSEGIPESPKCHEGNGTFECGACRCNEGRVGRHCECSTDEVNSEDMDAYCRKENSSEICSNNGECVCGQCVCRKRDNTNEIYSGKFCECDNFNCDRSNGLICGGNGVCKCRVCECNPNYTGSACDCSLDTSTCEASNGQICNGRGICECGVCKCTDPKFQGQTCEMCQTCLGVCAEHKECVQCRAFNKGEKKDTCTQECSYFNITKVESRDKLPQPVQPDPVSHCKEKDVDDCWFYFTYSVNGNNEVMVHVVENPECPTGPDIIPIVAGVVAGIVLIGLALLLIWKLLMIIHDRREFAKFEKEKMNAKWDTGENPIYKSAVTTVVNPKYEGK

Structure (SMILES) | IC50 (integrin α4β1) [nM] | IC50 (integrin α4β7) [nM]
CCC(CC)(C(=O)N[C@@H](Cc1ccc(OCc2c(Cl)cccc2Cl)cc1)C(=O)O)C(=O)N1CC[C@@H](O)C1 [Example 35] | 20 to 100 | < 20
CCC(CC)(C(=O)N[C@@H](Cc1ccc(OCc2c(Cl)cccc2Cl)cc1)C(=O)O)C(=O)N1CCSCC1 [Example 36] | 100 to 2000 | 20 to 100
CCC(CC)(C(=O)N[C@@H](Cc1ccc(OCc2c(Cl)cccc2Cl)cc1)C(=O)O)C(=O)N1CCC(C(N)=O)CC1 [Example 39] | 100 to 2000 | 20 to 100
CCC(CC)(C(=O)N[C@@H](Cc1ccc(OCc2c(Cl)cccc2Cl)cc1)C(=O)O)C(=O)N(C)CCN(C)C [Example 40] | 100 to 2000 | 20 to 100
CCN(C)C(=O)C(CC)(CC)C(=O)N[C@@H](Cc1ccc(OCc2c(Cl)cccc2Cl)cc1)C(=O)O [Example 41] | 100 to 2000 | 20 to 100
CCC(CC)(C(=O)N[C@@H](Cc1ccc(OCc2c(Cl)cccc2Cl)cc1)C(=O)O)C(=O)N1CCCNCC1 [Example 42] | 100 to 2000 | 20 to 100
CCC(CC)(C(=O)N[C@@H](Cc1ccc(OCc2c(Cl)cccc2Cl)cc1)C(=O)O)C(=O)N1CC[C@@H](N(C)C)C1 [Example 44] | 100 to 2000 | < 20
CCC(CC)(C(=O)N[C@@H](Cc1ccc(OCc2c(Cl)cccc2Cl)cc1)C(=O)O)C(=O)N1CCN(C=O)CC1 [Example 45] | 100 to 2000 | 20 to 100
CCC(CC)(C(=O)N[C@@H](Cc1ccc(OCc2c(Cl)cccc2Cl)cc1)C(=O)O)C(=O)N1C[C@H](O)C[C@H]1C(=O)OC [Example 46] | 100 to 2000 | < 20

Continued, values first:

IC50 (integrin α4β1) [nM] | IC50 (integrin α4β7) [nM] | Structure (SMILES)
100 to 2000 | 20 to 100 | CCC(CC)(C(=O)N[C@@H](Cc1ccc(OCc2c(Cl)cccc2Cl)cc1)C(=O)O)C(=O)N1CCC(O)CC1 [Example 49]
100 to 2000 | 20 to 100 | CCC(CC)(C(=O)N[C@@H](Cc1ccc(OCc2c(Cl)cccc2Cl)cc1)C(=O)O)C(=O)N1CCC[C@H]1COC [Example 50]
100 to 2000 | < 20 | CCC(CC)(C(=O)N[C@@H](Cc1ccc(OCc2c(Cl)cccc2Cl)cc1)C(=O)O)C(=O)N1CCC[C@H]1CN1CCCC1 [Example 53]
20 to 100 | < 20 | CCC(CC)(C(=O)N[C@@H](Cc1ccc(OCc2c(Cl)cccc2Cl)cc1)C(=O)O)C(=O)N1CC[C@@H](NC(C)=O)C1 [Example 54]
20 to 100 | < 20 | CCC(CC)(C(=O)N[C@@H](Cc1ccc(OCc2c(Cl)cccc2Cl)cc1)C(=O)O)C(=O)N1CC[C@H](NC(C)=O)C1 [Example 55]
100 to 2000 | < 20 | CCC(CC)(C(=O)NC(Cc1ccc(OCc2c(Cl)cccc2Cl)cc1)C(=O)O)C(=O)N1CCCC1C(=O)OC (stereo not shown) [Example 56]
100 to 2000 | 100 to 2000 | O=C(O)[C@H](Cc1ccc(OCc2c(Cl)cccc2Cl)cc1)NC(=O)C1(C(=O)N2CCCC2)CCOCC1 [Example 58]
100 to 2000 | 20 to 100 | O=C1CCN(C(=O)C2(C(=O)N[C@@H](Cc3ccc(OCc4c(Cl)cccc4Cl)cc3)C(=O)O)CC2)C1 [Example 59]
100 to 2000 | 20 to 100 | CCC(CC)(C(=O)N[C@@H](Cc1ccc(OCc2c(Cl)cccc2Cl)cc1)C(=O)O)C(=O)N1CCCN(C=O)CC1 [Example 61]
100 to 2000 | 20 to 100 | CCC(CC)(C(=O)N[C@@H](Cc1ccc(OCc2c(Cl)cccc2Cl)cc1)C(=O)O)C(=O)N1CC[C@@H](NC(=O)C(F)(F)F)C1 [Example 63]
100 to 2000 | 20 to 100 | CCC(CC)(C(=O)N[C@@H](Cc1ccc(OCc2c(Cl)cccc2Cl)cc1)C(=O)O)C(=O)N1CC[C@@H](NC)C1 [Example 64]
100 to 2000 | < 20 | CCC(CC)(C(=O)N[C@@H](Cc1ccc(OCc2c(Cl)cccc2Cl)cc1)C(=O)O)C(=O)N1CC[C@H](O)C1 [Example 65]
100 to 2000 | 20 to 100 | CCC(CC)(C(=O)N[C@@H](Cc1ccc(OCc2c(Cl)cccc2Cl)cc1)C(=O)O)C(=O)N1CC[C@H](N)C1 [Example 66]
100 to 2000 | 20 to 100 | CCC(CC)(C(=O)N[C@@H](Cc1ccc(OCc2c(Cl)cccc2Cl)cc1)C(=O)O)C(=O)N1CCC[C@H]1C(N)=O [Example 67]

— patent publication US7160874B2, “Phenylalanine derivatives” (Ajinomoto Co., Inc., priority 1999, dated 2007)
